The experiment deals with BDF1 mice, B16 melanoma ip, median survival T/C. Briefly: NCI In Vivo Anticancer Drug Screen. Data for tumor model B16 Melanoma (intraperitoneal) in B6D2F1 (BDF1) mice. To be noted: endpoint: median survival time, higher = longer survival. In outline:
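Survival or tumor size is measured after treatment of tumor-bearing mice and normalised to the vehicle-treated control group.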

Where “and” joins values, the source holds several entries; their conditions need not be identical. Equal values may be shown once. Toxic doses and inconclusive results are not listed.

On to `O=C(O)CC(NC(=O)CP(=O)(O)O)C(=O)O` (stereo unspecified), for which the T/C runs as follows: (dose: 10.0 mg/kg/injection, schedule: Q01DX005 (ip), vehicle: saline) 112 % of control; (dose: 15.6 mg/kg/injection, schedule: Q03HX024 (ip), vehicle: saline) 175 % of control; (dose: 20.0 mg/kg/injection, schedule: Q01DX005 (ip), vehicle: saline) 123 % of control; (dose: 21.9 mg/kg/injection, schedule: Q01DX009 (ip), vehicle: saline) 150 % of control; (dose: 25.9 mg/kg/injection, schedule: Q03HX024 (ip), vehicle: saline) 176 % of control; (dose: 31.1 mg/kg/injection, schedule: Q01DX009 (ip), vehicle: saline) 156 % of control. In addition, the T/C (dose: 32.9 mg/kg/injection, schedule: Q01DX009 (ip), vehicle: saline) was 164 % of control; the T/C (dose: 43.2 mg/kg/injection, schedule: Q03HX024 (ip), vehicle: saline) is 182 % of control; the T/C (dose: 49.4 mg/kg/injection, schedule: Q01DX009 (ip), vehicle: saline) is 174 % of control; the T/C (dose: 51.8 mg/kg/injection, schedule: Q01DX009 (ip), vehicle: saline) is 177 % of control; the T/C (dose: 74.1 mg/kg/injection, schedule: Q01DX009 (ip), vehicle: saline) was 182 % of control; the T/C (dose: 77.8 mg/kg/injection, schedule: Q04DX003 (ip), vehicle: saline) was 153 % of control. For the same molecule, the T/C is, setting by setting: (dose: 79.0 mg/kg/injection, schedule: Q01DX009 (ip), vehicle: saline) 170 % of control; (dose: 79.0 mg/kg/injection, schedule: Q01DX009 (sc), vehicle: saline) 165 % of control; (dose: 86.4 mg/kg/injection, schedule: Q01DX004 (ip), vehicle: saline) 173 % of control; (dose: 86.4 mg/kg/injection, schedule: Q01DX009 (ip), vehicle: saline) 177 % of control; (dose: 111.0 mg/kg/injection, schedule: Q01DX009 (ip), vehicle: saline) 201 % of control; (dose: 117.0 mg/kg/injection, schedule: Q04DX003 (oral), vehicle: saline) 106 % of control. Also, the T/C runs as follows: (dose: 118.0 mg/kg/injection, schedule: Q01DX009 (ip), vehicle: saline) 185 % of control; (dose: 118.0 mg/kg/injection, schedule: Q01DX009 (oral), vehicle: saline) 100 % of control; (dose: 118.0 mg/kg/injection, schedule: Q01DX009 (sc), vehicle: saline) 176 % of control; (dose: 125.0 mg/kg/injection, schedule: Q04DX003 (ip), vehicle: saline) 162 % of control; (dose: 130.0 mg/kg/injection, schedule: Q04DX003 (ip), vehicle: saline) 168 % of control and 171 % of control; (dose: 144.0 mg/kg/injection, schedule: Q01DX004 (ip), vehicle: saline) 178 % of control. Further, the T/C was 199 % of control (dose: 144.0 mg/kg/injection, schedule: Q01DX009 (ip), vehicle: saline); 159 % of control (dose: 160.0 mg/kg/injection, schedule: Q01DX005 (ip), vehicle: saline); 204 % of control (dose: 167.0 mg/kg/injection, schedule: Q01DX009 (ip), vehicle: saline); 177 % of control (dose: 177.0 mg/kg/injection, schedule: Q01DX009 (ip), vehicle: saline); 178 % of control (dose: 177.0 mg/kg/injection, schedule: Q01DX009 (sc), vehicle: saline); 110 % of control (dose: 194.0 mg/kg/injection, schedule: Q04DX003 (oral), vehicle: saline). In addition, the T/C is 161 % of control and 201 % of control (dose: 216.0 mg/kg/injection, schedule: Q04DX003 (ip), vehicle: saline); 183 % of control (dose: 240.0 mg/kg/injection, schedule: Q01DX004 (ip), vehicle: saline); 190 % of control (dose: 250.0 mg/kg/injection, schedule: Q01DX009 (ip), vehicle: saline); 182 % of control (dose: 250.0 mg/kg/injection, schedule: Q04DX003 (ip), vehicle: saline); 175 % of control (dose: 320.0 mg/kg/injection, schedule: Q01DX005 (ip), vehicle: saline); 168 % of control (dose: 324.0 mg/kg/injection, schedule: Q01DX001 (ip), vehicle: saline). Besides, the T/C (dose: 324.0 mg/kg/injection, schedule: Q04DX003 (oral), vehicle: saline) is 95 % of control; the T/C (dose: 360.0 mg/kg/injection, schedule: Q04DX003 (ip), vehicle: saline) was 171 % of control and 227 % of control; the T/C (dose: 400.0 mg/kg/injection, schedule: Q01DX001 (oral), vehicle: saline) was 97 % of control; the T/C (dose: 400.0 mg/kg/injection, schedule: Q01DX004 (ip), vehicle: saline) is 46 % of control; the T/C (dose: 500.0 mg/kg/injection, schedule: Q04DX003 (ip), vehicle: saline) was 197 % of control; the T/C (dose: 540.0 mg/kg/injection, schedule: Q01DX001 (ip), vehicle: saline) is 174 % of control. Further, the T/C is, setting by setting: (dose: 540.0 mg/kg/injection, schedule: Q04DX003 (oral), vehicle: saline) 110 % of control; (dose: 600.0 mg/kg/injection, schedule: Q04DX003 (ip), vehicle: saline) 86 % of control and 201 % of control; (dose: 900.0 mg/kg/injection, schedule: Q01DX001 (ip), vehicle: saline) 154 % of control and 190 % of control; (dose: 900.0 mg/kg/injection, schedule: Q01DX001 (oral), vehicle: saline) 100 % of control; (dose: 900.0 mg/kg/injection, schedule: Q01DX001 (sc), vehicle: saline) 154 % of control; (dose: 1350.0 mg/kg/injection, schedule: Q01DX001 (ip), vehicle: saline) 150 % of control. For the same molecule, the T/C is, setting by setting: (dose: 1350.0 mg/kg/injection, schedule: Q01DX001 (sc), vehicle: saline) 120 % of control; (dose: 1500.0 mg/kg/injection, schedule: Q01DX001 (ip), vehicle: saline) 119 % of control.

With `CC(C)c1c[nH]c(=O)[nH]c1=O`, the T/C is 100 % of control (dose: 100.0 mg/kg/injection, schedule: Q01DX009 (ip), vehicle: Klucel (hydroxypropylcellulose) (HPC)); 92 % of control (dose: 200.0 mg/kg/injection, schedule: Q01DX009 (ip), vehicle: Klucel (hydroxypropylcellulose) (HPC)); 95 % of control (dose: 400.0 mg/kg/injection, schedule: Q01DX009 (ip), vehicle: Klucel (hydroxypropylcellulose) (HPC)).

As to `OC(CBr)C(O)C(O)C(O)CBr` (stereo unspecified), the T/C (dose: 12.5 mg/kg/injection, schedule: Q01DX009 (ip), vehicle: saline) is 110 % of control; the T/C (dose: 20.0 mg/kg/injection, schedule: Q01DX009 (ip), vehicle: saline with Tween-80) was 107 % of control; the T/C (dose: 25.0 mg/kg/injection, schedule: Q01DX009 (ip), vehicle: saline) is 107 % of control; the T/C (dose: 25.9 mg/kg/injection, schedule: Q01DX009 (ip), vehicle: saline with Tween-80) was 109 % of control; the T/C (dose: 40.0 mg/kg/injection, schedule: Q01DX009 (ip), vehicle: saline with Tween-80) was 100 % of control; the T/C (dose: 43.2 mg/kg/injection, schedule: Q01DX009 (ip), vehicle: saline with Tween-80) is 105 % of control. The T/C is 120 % of control and 107 % of control (dose: 50.0 mg/kg/injection, schedule: Q01DX009 (ip), vehicle: saline); 116 % of control (dose: 72.0 mg/kg/injection, schedule: Q01DX009 (ip), vehicle: saline with Tween-80); 108 % of control (dose: 80.0 mg/kg/injection, schedule: Q01DX009 (ip), vehicle: saline with Tween-80); 103 % of control and 120 % of control (dose: 100.0 mg/kg/injection, schedule: Q01DX009 (ip), vehicle: saline with Tween-80); 107 % of control (dose: 100.0 mg/kg/injection, schedule: Q01DX009 (ip), vehicle: saline); 101 % of control (dose: 120.0 mg/kg/injection, schedule: Q01DX009 (ip), vehicle: saline with Tween-80). Moreover, the T/C (dose: 160.0 mg/kg/injection, schedule: Q01DX009 (ip), vehicle: saline with Tween-80) is 115 % of control; the T/C (dose: 200.0 mg/kg/injection, schedule: Q01DX009 (ip), vehicle: saline with Tween-80) is 113 % of control and 114 % of control; the T/C (dose: 200.0 mg/kg/injection, schedule: Q01DX009 (ip), vehicle: saline) was 117 % of control and 110 % of control; the T/C (dose: 300.0 mg/kg/injection, schedule: Q01DX009 (ip), vehicle: saline with Tween-80) was 82 % of control; the T/C (dose: 555.8 mg/kg/injection, schedule: Q01DX009 (ip), vehicle: saline with Tween-80) is 55 % of control; the T/C (dose: 800.0 mg/kg/injection, schedule: Q01DX009 (ip), vehicle: saline with Tween-80) is 112 % of control.

The values are drawn from PubChem BioAssay AID192 (DTP/NCI, 2004).
